Data on 17 compounds can be found in patent publication US20250388544A1, “HETEROAROMATIC INHIBITORS OF ASTACIN PROTEINASES” (VIVORYON THERAPEUTICS N.V., priority 2019, published 2025).

For assay [1], the target named is T1, hMeprin β (Homo sapiens, UniProt Q16820).
T1 sequence (Q16820 62-701): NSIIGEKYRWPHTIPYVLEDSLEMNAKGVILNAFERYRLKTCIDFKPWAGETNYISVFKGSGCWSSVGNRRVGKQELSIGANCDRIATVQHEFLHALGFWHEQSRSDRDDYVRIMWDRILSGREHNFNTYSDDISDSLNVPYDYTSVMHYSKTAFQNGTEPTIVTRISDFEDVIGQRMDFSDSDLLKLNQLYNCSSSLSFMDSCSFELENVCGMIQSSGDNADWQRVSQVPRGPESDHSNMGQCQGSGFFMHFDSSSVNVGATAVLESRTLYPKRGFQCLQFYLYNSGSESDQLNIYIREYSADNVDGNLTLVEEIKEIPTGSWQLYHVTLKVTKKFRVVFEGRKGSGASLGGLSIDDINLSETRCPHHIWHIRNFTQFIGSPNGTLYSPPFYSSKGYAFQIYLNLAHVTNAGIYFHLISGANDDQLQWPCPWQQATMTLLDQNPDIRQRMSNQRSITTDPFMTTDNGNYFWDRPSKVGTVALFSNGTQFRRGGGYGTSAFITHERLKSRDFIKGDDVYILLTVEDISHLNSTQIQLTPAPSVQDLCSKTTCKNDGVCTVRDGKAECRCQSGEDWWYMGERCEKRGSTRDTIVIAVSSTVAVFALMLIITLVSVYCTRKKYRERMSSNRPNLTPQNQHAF
The assay is described as follows: Enzymatic assay, quenched peptide substrate cleavage, method B. The class given is biochemical. Particulars: geometric mean (geometric SD factor in parentheses); for pKi: Morrison's equation, read-out: Meprin beta Ki(app); for pIC50: read-out: Meprin beta IC50. On the procedure:
(§1) The determination of enzymatic activity was based on the cleavage of internally quenched peptide substrates. A typical assay of 250 μl total volume measured in black 96 well plates consisted of 100 μl buffer, 50 μl enzyme at a final concentration of 5e-8 M to 2e-10 M, 50 μl substrate (0.15 to 80 μM, in buffer, 0.5% DMSO) and 50 μl inhibitor solution (in buffer, 1% DMSO). In case of 125 μl assay volume (black 96 half area well plates) all volumes were cut in half. Enzymatic activity of ADAMs was measured in 384 well plates with 60 μl total assay volume consisting of 20 μl inhibitor, 20 μl buffer, 10 μl enzyme and 10 μl substrate.
(§2) Based on method B Ki^(app) values were determined using Morrison's equation. All measurements were performed using a fluorescence plate reader (FLUOSTAR OPTIMA, BMG Labtech) at 30° C. The kinetic parameters were determined at least in duplicates on separate days. The excitation/emission wavelength was 340/420 nm. The kinetic data was evaluated using GRAFIT software (version 7.0.3, Erithacus Software).

The target of assay [2] is T2, hMeprin α (Homo sapiens, UniProt Q16819).
T2 sequence (Q16819 66-746): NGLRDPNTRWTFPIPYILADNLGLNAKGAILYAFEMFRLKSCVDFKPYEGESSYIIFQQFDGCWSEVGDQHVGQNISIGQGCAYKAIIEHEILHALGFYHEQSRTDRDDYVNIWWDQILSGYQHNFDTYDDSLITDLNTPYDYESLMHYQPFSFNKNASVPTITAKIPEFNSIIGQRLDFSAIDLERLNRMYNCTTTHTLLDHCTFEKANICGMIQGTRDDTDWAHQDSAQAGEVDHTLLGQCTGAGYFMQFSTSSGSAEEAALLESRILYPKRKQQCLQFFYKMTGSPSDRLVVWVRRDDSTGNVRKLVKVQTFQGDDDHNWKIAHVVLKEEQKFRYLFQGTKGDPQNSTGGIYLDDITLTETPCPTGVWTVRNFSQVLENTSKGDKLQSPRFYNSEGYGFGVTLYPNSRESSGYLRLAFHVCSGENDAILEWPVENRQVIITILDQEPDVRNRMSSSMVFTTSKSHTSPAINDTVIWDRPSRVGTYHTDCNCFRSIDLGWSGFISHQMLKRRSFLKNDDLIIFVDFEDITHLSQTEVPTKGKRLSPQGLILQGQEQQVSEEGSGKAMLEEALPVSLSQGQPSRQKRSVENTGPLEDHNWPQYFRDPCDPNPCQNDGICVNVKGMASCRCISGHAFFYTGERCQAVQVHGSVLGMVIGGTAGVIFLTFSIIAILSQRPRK
The description is as above. The class given is biochemical. Conditions: geometric mean (geometric SD factor in parentheses); for pKi: Morrison's equation, read-out: Meprin alpha Ki(app); for pIC50: read-out: Meprin alpha IC50. The method, then: as §1, §2

Each structure is given as a SMILES string. pIC50, pKi: −log10 of the molar value.

Turning to `O=C(Cc1c(-c2cccc(-c3nnn[nH]3)c2)n[nH]c1-c1ccccc1)NO` [Example 71, 2-[5-Phenyl-3-[3-(1H-tetrazol-5-yl)phenyl]-1H-pyrazol-4-yl]ethanehydroxamic acid], in assay [1], the pKi is 8.15 and the pIC50 was 8.15. In assay [2], the pKi is 9.15 and the pIC50 is 9.15.

`O=C(Cc1c(-c2ccc(Cl)c(O)c2F)n[nH]c1-c1ccccc1)NO` [Example 53, 2-[3-(4-Chloro-2-fluoro-3-hydroxy-phenyl)-5-phenyl-1H-pyrazol-4-yl]ethanehydroxamic acid]: in assay [1], the pKi was 7.21 and the pIC50 is 7.21. For the same compound, in assay [2], the pKi is 8.70 and the pIC50 is 8.52.

In the case of `COc1ccc(-c2nc3ccccc3n2CC(=O)NO)cc1` [Example 15, 2-[2-(4-Methoxyphenyl)benzimidazol-1-yl]ethanehydroxamic acid], the pKi is 6.60 in assay [1] and 7.03 in assay [2]. The pIC50 is 6.59 in assay [1] and 7.02 in assay [2].

Turning to `O=C(Cn1c(-c2cccc(C(=O)O)c2)nc2ccccc21)NO` [Example 18, 3-[1-[2-(Hydroxyamino)-2-oxo-ethyl]benzimidazol-2-yl]benzoic acid], in assay [1], the pKi is 6.80 and the pIC50 was 6.79. Moreover, in assay [2], the pKi was 7.21 and the pIC50 is 7.20.

Regarding `O=C(Cc1c(-c2ccccc2)[nH]nc1[C@H]1CC[C@H](C(=O)O)CC1)NO` [Example 76, trans-4-[4-[2-(Hydroxyamino)-2-oxo-ethyl]-5-phenyl-1H-pyrazol-3-yl]cyclohexanecarboxylic acid], in assay [1], the pKi is 7.01 and the negative logarithm of the IC50 (pIC50) was 7.01. Also, in assay [2], the pKi is 7.92 and the pIC50 is 7.92.

Turning to `Cc1n[nH]c(-c2ccccc2)c1CC(=O)NO` [Example 44, 2-(3-Methyl-5-phenyl-1H-pyrazol-4-yl)ethanehydroxamic acid], in assay [1], the pKi is 5.68 and the pIC50 was 5.66. In assay [2], the negative-log Ki (pKi) was 6.52 and the pIC50 was 6.51.

For the compound `O=C(Cc1c(-c2ccc(C(=O)O)cc2)n[nH]c1-c1ccc(C(=O)O)cc1)NO` [Example 59, 4-[3-(4-Carboxyphenyl)-4-[2-(hydroxyamino)-2-oxo-ethyl]-1H-pyrazol-5-yl]benzoic acid], in assay [1], the pKi was 6.94 and the pIC50 was 6.89. In addition, in assay [2], the pKi was 7.25 and the pIC50 was 7.25.

Turning to `O=C(Cn1c(-c2ccc(Cl)c(O)c2F)nc2ccc(C(=O)O)cc21)NO` [Example 22, 2-(4-Chloro-2-fluoro-3-hydroxy-phenyl)-3-[2-(hydroxyamino)-2-oxo-ethyl]benzimidazole-5-carboxylic acid], in assay [1], the pKi was 8.15 and the pIC50 is 8.10. In assay [2], the pKi was 8.22 and the pIC50 is 8.22.

For the compound `O=C(Cc1c(-c2cccc(C(=O)O)c2)n[nH]c1-c1cc(F)c(O)c(Cl)c1)NO` [Example 64, 3-[5-(3-Chloro-5-fluoro-4-hydroxy-phenyl)-4-[2-(hydroxyamino)-2-oxo-ethyl]-1H-pyrazol-3-yl]benzoic acid], the pKi in assay [1] is 9.62; in assay [2], 9.85. For the same compound, the pIC50 in assay [1] was 9.59; in assay [2] it was 9.62.

Regarding `O=C(Cc1c(-c2cccc(C(=O)O)c2)n[nH]c1-c1ccccc1)NO` [Example 51, 3-[4-[2-(Hydroxyamino)-2-oxo-ethyl]-5-phenyl-1H-pyrazol-3-yl]benzoic acid], in assay [1], the pKi was 7.33 and the pIC50 was 7.28. For the same compound, in assay [2], the pKi is 8.10 and the pIC50 was 8.10.

`O=C(Cc1c(Cc2ccccc2)n[nH]c1-c1ccccc1)NO` [Example 46, 2-(3-Benzyl-5-phenyl-1H-pyrazol-4-yl)ethanehydroxamic acid]: in assay [1], the pKi is 5.76 and the pIC50 was 5.75. For the same compound, in assay [2], the pKi is 7.15 and the pIC50 is 7.15.

As to `O=C(CCc1c(-c2ccccc2)nn(Cc2ccc(Cl)c(O)c2F)c1-c1ccccc1)NO` [Example 72, 3-[1-[(4-chloro-2-fluoro-3-hydroxy-phenyl)methyl]-3,5-diphenyl-pyrazol-4-yl]propanehydroxamic acid], in assay [1], the pKi was 5.93 and the pIC50 was 5.92. In addition, in assay [2], the negative logarithm of the Ki (pKi) was 9.82 and the pIC50 is 9.66.

On to `O=C(Cc1c(-c2c[nH]nc2C(F)(F)F)n[nH]c1-c1ccccc1)NO` [Example 70, 2-[5-Phenyl-3-[3-(trifluoromethyl)-1H-pyrazol-4-yl]-1H-pyrazol-4-yl]ethanehydroxamic acid], for which, in assay [1], the pKi was 7.06 and the pIC50 was 7.05. Also, in assay [2], the pKi was 8.70 and the pIC50 was 8.70.

Consider `O=C(Cc1c([C@@H]2CCCC[C@@H]2C(=O)O)n[nH]c1-c1ccccc1)NO` [Example 73, (1S,2R)-2-[4-[2-(Hydroxyamino)-2-oxoethyl]-5-phenyl-1H-pyrazol-3-yl]cyclohexanecarboxylic acid], for which, in assay [1], the pKi is 7.48 and the pIC50 is 7.48. Moreover, in assay [2], the pKi is 9.59 and the negative logarithm of the IC50 (pIC50) was 9.47.

As for `O=C(NO)C1c2ccccc2-c2[nH]nc(-c3ccccc3)c21` (centres unmarked) [Example 67, 3-Phenyl-1,4-dihydroindeno[1,2-c]pyrazole-4-carbohydroxamic acid], the pKi was 5.78 in assay [1] and 7.41 in assay [2]. Moreover, the pIC50 in assay [1] was 5.75; in assay [2] it was 7.40.

As to `O=C(Cc1c(-c2cccc(C(=O)O)c2)[nH]nc1[C@H]1CC[C@@H](C(=O)O)CC1)NO` [Example 77, cis-3-[3-(4-carboxycyclohexyl)-4-[2-(hydroxyamino)-2-oxo-ethyl]-1H-pyrazol-5-yl]benzoic acid], in assay [1], the pKi was 7.82 and the pIC50 was 7.82. Besides, in assay [2], the pKi was 7.64 and the pIC50 was 7.62.

For the compound `O=C(Cc1c(-c2ccc3c(c2)OCO3)n[nH]c1-c1cccc(C(=O)O)c1)NO` [Example 61, 3-[3-(1,3-Benzodioxol-5-yl)-4-[2-(hydroxyamino)-2-oxo-ethyl]-1H-pyrazol-5-yl)benzoic acid], the pKi was 7.36 in assay [1] and 8.52 in assay [2]. For the same compound, the results for the pIC50 in assay [1] and in assay [2] were 7.35 and 8.52, respectively.

What is called pKi is the Ki on a negative log10 scale, so that one unit is a factor of ten. The term pIC50 denotes the IC50 on a negative log10 scale, so that one unit is a factor of ten.
